{"source": "patent US12010993B2", "about": "“Granular agricultural compositions” (OMS Investments, Inc., priority 2020, dated 2024)", "key": {"perennial ryegrass": {"system": "perennial ryegrass", "experiment": "Turfgrass greening vs commercial greening products, perennial ryegrass, Table 33", "type": "in vivo", "description": "(§1) To further explain the positive greening response of Formulation 2, two additional trials were conducted on Kentucky bluegrass and perennial ryegrass. The additional trials compared Formulations 2 and 5 with other commercial greening products at equivalent nitrogen rates to better understand the speed of the greening response as well as the darkness of the greening response. Application rates are described in Table 31. The commercial greening products include Green Max™ Lawn Food and Turf Builder® Lawn Food available from the Scotts Company LLC (Marysville, OH). Urea was also evaluated.\n(§2) For each trial, preceding application, mowing was withheld for 24 to 48 hours to ensure sufficient leaf area was present for formulation absorption. The experimental unit for turfgrass color response testing was a 3′×3′ plot. The research area for turfgrass color response contained minimal weed pressure so that product impact could be accurately and consistently assessed. Plots were separated on each side by a 2 ft. untreated buffer strip.\n(§3) Formulations 2 and 5 were applied early in the morning to dew-laden turf. Green Max™ Lawn Food, Turf Builder® Lawn Food, and urea were all applied to dry turf once the morning dew had dissipated. All treatments were applied using a shaker jar and spreader box to ensure even particle coverage over the plot. Treatments applied to dry turf were watered in immediately after application with 0.18″ of water and wet-foliage applied treatments remained on the leaf surface for 24 hours prior to being watered in with 0.18″ of water. This trial design allowed for comparative evaluation of the response of turf to foliar nitrogen and iron compared to foliar nitrogen; soil applied nitrogen; and soil applied nitrogen and iron at two different rates of iron application. Turfgrass color was rated visually using the National Turfgrass Evaluation Program color rating scale (1-9). Treatments were rated for color 3 and 6 hours after application, and then 1, 3, 7, 14, and 20 days after application. Table 32 depicts testing of Kentucky bluegrass while Table 33 depicts testing of Perennial ryegrass."}, "Kentucky bluegrass": {"system": "Kentucky bluegrass", "experiment": "Turfgrass greening vs commercial greening products, Kentucky bluegrass, Table 32", "type": "in vivo", "description": "as §1, §2, §3"}}}
{"smiles": "NC(N)=O", "note": "[Urea]", "values": [{"measurement": "Turf Color (1-9)", "setting": "perennial ryegrass; 1 D after initial application", "value": 3.50}, {"measurement": "Turf Color (1-9)", "setting": "perennial ryegrass; 3 D after initial application", "value": 3.13}, {"measurement": "Turf Color (1-9)", "setting": "perennial ryegrass; 7 D after initial application", "value": 4.63}, {"measurement": "Turf Color (1-9)", "setting": "perennial ryegrass; 14 D after initial application", "value": 4.88}, {"measurement": "Turf Color (1-9)", "setting": "perennial ryegrass; 20 D after initial application", "value": 6.13}, {"measurement": "Turf Color (1-9)", "setting": "perennial ryegrass; 3 hr after initial application", "value": 3.13}, {"measurement": "Turf Color (1-9)", "setting": "perennial ryegrass; 6 hr after initial application", "value": 3.50}, {"measurement": "Turf Color (1-9)", "setting": "Kentucky bluegrass; 1 D after initial application", "value": 3.88}, {"measurement": "Turf Color (1-9)", "setting": "Kentucky bluegrass; 3 D after initial application", "value": 4.00}, {"measurement": "Turf Color (1-9)", "setting": "Kentucky bluegrass; 7 D after initial application", "value": 4.63}, {"measurement": "Turf Color (1-9)", "setting": "Kentucky bluegrass; 14 D after initial application", "value": 5.25}, {"measurement": "Turf Color (1-9)", "setting": "Kentucky bluegrass; 20 D after initial application", "value": 6.25}, {"measurement": "Turf Color (1-9)", "setting": "Kentucky bluegrass; 3 hr after initial application", "value": 3.75}, {"measurement": "Turf Color (1-9)", "setting": "Kentucky bluegrass; 6 hr after initial application", "value": 3.75}]}
